Results: PMC5910040, “An Antarctic Extreme Halophile and Its Polyextremophilic Enzyme: Effects of Perchlorate Salts” (Astrobiology, 2018)
Where “and” joins values, the source holds several entries; their conditions need not be identical. Equal values may be shown once. Entries after “also recorded” stand apart in the source; their conditions may differ.

Tests used:
[1] = target: T1, H. lacusprofundi β-galactosidase enzyme (Halorubrum lacusprofundi, UniProt B9LW38); test: Steady-state kinetic inhibition of purified β-galactosidase (ONPG); assay type: biochemical; conditions: for type of inhibition: Lineweaver-Burk / Dixon plots
T1 construct: made in house; host or cells: Halobacterium sp; NRC-1 (pRK42)
T1 sequence (B9LW38 1-700): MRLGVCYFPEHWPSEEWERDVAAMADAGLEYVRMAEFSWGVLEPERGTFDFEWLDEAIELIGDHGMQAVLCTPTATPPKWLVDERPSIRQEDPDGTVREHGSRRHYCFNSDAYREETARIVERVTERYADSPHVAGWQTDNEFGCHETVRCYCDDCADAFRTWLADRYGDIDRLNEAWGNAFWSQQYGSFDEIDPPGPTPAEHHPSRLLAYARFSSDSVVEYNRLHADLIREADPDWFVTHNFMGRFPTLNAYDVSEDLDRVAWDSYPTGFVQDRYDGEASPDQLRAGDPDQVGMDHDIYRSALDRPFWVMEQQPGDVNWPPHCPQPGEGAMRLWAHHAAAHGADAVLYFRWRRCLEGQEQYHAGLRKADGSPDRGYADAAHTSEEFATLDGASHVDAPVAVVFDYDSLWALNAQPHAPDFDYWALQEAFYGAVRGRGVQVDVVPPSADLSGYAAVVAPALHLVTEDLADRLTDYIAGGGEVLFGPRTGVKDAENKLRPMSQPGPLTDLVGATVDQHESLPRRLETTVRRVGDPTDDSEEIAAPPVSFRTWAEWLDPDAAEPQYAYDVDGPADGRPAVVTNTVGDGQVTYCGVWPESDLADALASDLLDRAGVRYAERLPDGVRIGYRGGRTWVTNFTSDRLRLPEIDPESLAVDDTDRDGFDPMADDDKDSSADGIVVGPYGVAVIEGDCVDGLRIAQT
Description: To purify β-galactosidase, cultures of Halobacterium sp. NRC-1 (pRK42) (Karan et al., [2013]) were grown to late-log phase (OD600 ∼ 1.0), harvested, resuspended in binding buffer (20 mM phosphate buffer, 2.0 M NaCl, 10% (v/v) glycerol, 30 mM imidazole, pH 7.4), and lysed by sonication (Model 50 Sonic Dismembrator, ThermoFisher Scientific, Waltham, MA). Cell debris was removed by centrifugation (25,000g, 4°C, 10 min) in an Eppendorf 5417C centrifuge, and resulting crude extract was filtered through a 0.2 μm polyethersulfone filter (ThermoFisher Scientific, Waltham, MA). The proteins were purified by using Nickel HisTrap HP Columns (GE Healthcare, Chicago, IL), equilibrated, and washed with binding buffer, and eluted sequentially with 2 M NaCl, 100 mM phosphate buffer (pH 7.4) supplemented with 40, 80, 100, 200, and 500 mM imidazole.
Column fractions were tested for activity with o-nitrophenyl-β-D-galactopyranoside (ONPG, ThermoFisher Scientific, Waltham, MA). Active fractions were combined and protein concentration estimated by absorption at 280 nm with a Shimadzu UV-1601 spectrophotometer (Shimadzu Corporation, Kyoto, Japan). To confirm purity, the protein was analyzed by 10% SDS-PAGE followed by staining with Coomassie Blue (Millipore Sigma, Billerica, MA).
The inhibitory properties of Mg^2+ and ClO4^− ions on the β-galactosidase enzyme were tested through steady-state kinetics with a Shimadzu UV-1601 spectrophotometer. The assay solution containing 10 μg/mL enzyme was preincubated at 50°C followed by addition of ONPG at three different concentrations (1, 2.5, and 5 mM), and absorption was recorded at 420 nm. V0, the Michaelis constant (Km), as well as Vmax, were determined with UV Probe ver. 4.23 software (Shimadzu Corporation, Kyoto, Japan). kcat was calculated from given values of Km and Vmax. After the kinetic experiments were recorded, Lineweaver-Burk plots for each concentration of the inhibitory ion were used to determine whether the inhibition was competitive or noncompetitive. KI was determined by using Dixon plots, which use the reciprocal velocity of multiple steady-state kinetic experiments at multiple substrate and inhibitor concentrations to extrapolate the concentration of inhibitor that results in half-maximal inhibition (Yoshino and Murakami, [2009]). All experiments were run in triplicate and averages used for kinetic analysis.

[2] = system: methanogens; design: method as in Kral et al., 2004; conditions: grown on Mars soil simulant; ref Kral et al., 2004; cited from earlier work
[3] = system: Halorubrum lacusprofundi; test: Aerobic growth rate of Halorubrum lacusprofundi with added salts; assay type: cell-based
Description: (§1) For aerobic growth, cultures of halophiles were shaken in the light in test tubes at 42°C in CM^+ for Halobacterium sp. NRC-1 and at 37°C in ATCC 1682 media for H. lacusprofundi (Berquist et al., [2007]), adjusted to the desired concentration of NaClO4, MgCl2, and Mg(ClO4)2. For anaerobic growth, cultures were grown in the dark without shaking, essentially as described previously (Oren et al., [2014]). OD600 was recorded with a Spectronic 200 (ThermoFisher Scientific, Waltham, MA) test tube reader. Growth rates were calculated by using the slope of a line of regression calculated from early to mid-log phase.

[4] = system: Halobacterium sp. NRC-1; test: Aerobic growth rate of Halobacterium sp. NRC-1 with added salts; assay type: cell-based; conditions: Mg2+ added
Description: as §1

[5] = system: Halorubrum lacusprofundi; test: Anaerobic growth assay of Halorubrum lacusprofundi; assay type: cell-based; conditions: 40 mM (0.04 M) perchlorate, dark, no oxygen, 8 days
Description: as §1

[6] = system: Halobacterium sp. NRC-1; test: Anaerobic growth assay of Halobacterium sp. NRC-1; assay type: cell-based; conditions: 40 mM NaClO4, dark, no oxygen, 8 days
Description: as §1

[7] = system: Methanobacterium articum M2 VKM B-2372; design: method as in Shcherbakova et al., 2015; conditions: 9.8 mM NaClO4; ref Shcherbakova et al., 2015; cited from earlier work
[8] = system: Methanobacterium veterum MK4 VKM B-2440; design: method as in Shcherbakova et al., 2015; conditions: 9.8 mM NaClO4; ref Shcherbakova et al., 2015; cited from earlier work
[9] = system: Methanosarcina sp.; design: method as in Shcherbakova et al., 2015; conditions: 9.8 mM NaClO4; ref Shcherbakova et al., 2015; cited from earlier work

**Q.** Which type of inhibition [1] does the source give for `[O-][Cl+3]([O-])([O-])O` [Mg(ClO4)2, magnesium perchlorate] here?
**A.** Its type of inhibition is “mixed inhibitor; also recorded: mixed inhibition”.

**Q.** And the “concentration up to which methanogens metabolize” value [2]?
**A.** Its value is “up to 0.06 M”.

**Q.** With `[Mg+2]` [MgCl2, magnesium chloride] as the molecule, how does the “highest concentration at which a measurable growth rate was recorded” value ([3]; ATCC 1682 medium) read?
**A.** Its value is 1.4 M.

**Q.** And the inhibition of growth at 1.2 M ([3]; Halorubrum lacusprofundi, 1.2 M Mg2+ (MgCl2 added), read-out: decrease in growth rate)?
**A.** The inhibition of growth at 1.2 M was 40%.

**Q.** And the inhibition of growth at 1.4 M ([3]; Halorubrum lacusprofundi, 1.4 M Mg2+ (MgCl2 added), read-out: decrease in growth rate)?
**A.** Its inhibition of growth at 1.4 M is 80%.

**Q.** And the “concentration up to which a substantial growth rate is retained / no significantly deleterious effect” value ([3]; MgCl2 added, listed as Mg^2+)?
**A.** The value was 0.9 M and ~1 M.

**Q.** And the “concentration up to which no significantly deleterious effect on growth” value [4]?
**A.** Its value is about 1 M.

**Q.** What about the inhibition at 250000 µM ([1]; 0.5 M Na+ replaced with 0.25 M Mg2+ using magnesium chloride, read-out: decrease in catalytic efficiency) of the same molecule?
**A.** The inhibition at 250000 µM was 70%.

**Q.** What about the type of inhibition [1] of the same molecule?
**A.** Its type of inhibition is “competitive inhibitor”.

**Q.** And the type of inhibition ([1]; listed as Mg^2+)?
**A.** Its type of inhibition is “competitive inhibition”.

**Q.** Which “anaerobic growth with perchlorate” value [5] does the source give for `[O-][Cl+3]([O-])([O-])O` [NaClO4, sodium perchlorate] here?
**A.** Its value is “able to grow anaerobically”.

**Q.** And the “anaerobic growth with perchlorate” value [6]?
**A.** Its value is “incapable of anaerobic growth”.

**Q.** And the type of inhibition ([1]; listed as perchlorate)?
**A.** The type of inhibition was “very weak noncompetitive inhibitor”.

**Q.** And the type of inhibition ([1]; listed as perchlorate ions)?
**A.** The type of inhibition was “noncompetitive inhibitor”.

**Q.** And the type of inhibition ([1]; listed as sodium perchlorate)?
**A.** Its type of inhibition is “noncompetitive inhibition”.

**Q.** What about the “protein precipitation (salting-out)” value ([1]; at the concentrations tested) of the same molecule?
**A.** Its value is “no protein precipitation”.

**Q.** What about the reduction in methanogenesis [7] of the same molecule?
**A.** The reduction in methanogenesis was 80%.

**Q.** What about the reduction in methanogenesis [8] of the same molecule?
**A.** Its reduction in methanogenesis is 80%.

**Q.** What about the reduction in methanogenesis [9] of the same molecule?
**A.** The reduction in methanogenesis was 80%.
